Consider nine compounds from patent publication US20110237549A1, “MODULATORS OF RNA RIBOSWITCHES” (MEMORIAL SLOAN KETTERING CANCER CENTER, priority 2008, published 2011).

Experiment [1] concerns the target 220-nucleotide full-length F. nucleatum FMN riboswitch. Briefly: fluorescent binding assay with the 220-nucleotide full-length F. nucleatum impX FMN riboswitch. Set-up: species or system Fusobacterium nucleatum. The conditions noted are these: 220-nucleotide RNA; read-out: Kd (mean±s.d.).
Experiment [2] deals with 112-nucleotide F. nucleatum FMN riboswitch. Description: fluorescent binding assay with the 112-nucleotide F. nucleatum FMN riboswitch. The conditions noted are these: for Kd: read-out: dissociation constants (mean s.d.), 112-nucleotide riboswitch, 2 mM MgCl2 and 100 mM KCl.
Experiment [3] has as its system 265-nucleotide full-length T. maritima lysine riboswitch. Description: primer extension assay (reverse transcriptase pausing at A169). Format: biochemical, Thermotoga maritima. From the text: FIG. 39. Interactions of lysine and its analogs with the T. maritima lysine riboswitch studied by primer extension. a and b, Representative gels of riboswitch titration by lysine (a) and AEC (b). Reverse transcriptase (RT) pauses three nucleotides prior to the j unction at A169 in the context of the full-length riboswitch if the riboswitch-binding ligand is present in the reaction mixture. c, Representative titration experiments used for calculations of the ligand concentration (FIG. 4c) at which RT pausing is half-maximally attained. The experimental data points for lysine and AEC are from panels (a) and (b). The data were fitted to equation (1), which is based on the equation describing a bimolecular equilibrium, by the nonlinear least squares analysis. In the equation
θ is the fraction of RT pausing, No and Lo are RNA and ligand concentrations, respectively, and P50 is the apparent ligand concentration at which RT pausing is half-maximally attained. The P50 value for the lysine-induced RT pausing 5.50±0.53/−1M (mean±s.d.) (n=2) is similar to the Kd value 4.03±0.34/−1M (mean±s.d.) (n=2) determined by the equilibrium dialysis assay. The relative differences between the P50 values for lysine and its analogs are in overall agreement with the relative differences obtained from the Kd values for lysine and its analogs determined for the B. subtilis lysine riboswitch in ref. 5.
Primer extension experiments were performed using 265-nucleotide full-length riboswitch. The 32P-labelled 13-mer DNA oligonucleotide (100,000 c.p.m.), complementary to nucleotides 253-265 of RNA, was annealed to the 39 end of RNA (final RNA concentration […] in the assay). Primer extension was conducted in […] volume with 40 U of moloney murine leukaemia virus reverse transcriptase in 50 mM Na-HEPES, pH 7.9, 2 mM MgCl2, and variable concentrations of NaCl and KCl (FIG. 4), with or without a tenfold excess of lysine over RNA. After 30 min incubation at 37° C., the reactions were precipitated with ethanol, dissolved in loading buffer and analysed by 10% PAGE. Efficiency of lysine-induced pausing of reverse transcriptase at nucleotide A169 was quantified using FLA-7000 PhosphorImager and Image Gauge software (Fujifilm). Band intensities from independent experiments were averaged after gel-loading correction, background subtraction and normalization. The primer extension assay in the presence of lysine analogues was performed in 50 mM Na-HEPES, pH 7.9, 2 mM MgCl2, 50 mM KCl, and lysine analogues in the range 1028-1022 M. The data were fitted using a bimolecular equilibrium equation (Supplementary FIG. 12) and the resulting P50 values are reported in FIG. 4c. Reverse transcriptase sequencing reactions were run in parallel.

Experiment [4] concerns 143-nucleotide B. subtilis FMN riboswitch. Description: fluorescent binding assay with the 143-nucleotide B. subtilis FMN riboswitch. As to conditions: Bacillus subtilis riboswitch. How it is done:
FIG. 9. The metabolite-sensing domain of the B. subtilis FMN riboswitch. a, The sequence of the 143-nucleotide fragment of B. subtilis riboswitch 5 is presented as a secondary structure schematic, which is based on the consensus secondary structure of the FMN riboswitches with small corrections from the three-dimensional structure of the F nucleatum riboswitch. b, Binding of FMN and its analogs to the 143-nucleotide B. subtilis FMN riboswitch. All measurements were performed using fluorescent assay.

Experiment [5] has as its system T. maritima lysine riboswitch. Briefly: equilibrium dialysis, T. maritima lysine riboswitch. Format: binding, Thermotoga maritima. How it is done: (§1) The assay was performed as described in Sudarsan, et al., An mRNA structure in bacteria that controls gene expression by binding lysine, Genes Dev. 17:2688-2697 (2003) using 5 kDa DispoEquilibrium DIALYZERS (Harvard Apparatus). In brief, […] RNA (from 0.001 to 20 mM) in the in-line probing buffer was placed in chamber A of the dialyser and equilibrated for 16 h at room temperature against chamber B containing […] 3H-labelled lysine (1 nM; 6,000 c.p.m.) in the same buffer. The amount of bound lysine was calculated by subtracting the radioactivity counts of chamber B from chamber A. The data were fitted using a bimolecular equilibrium equation, assuming that the free lysine concentration is negligible.
(In general: In equilibrium dialysis free small molecules cross a membrane that holds back macromolecules.)

The subject of experiment [6] is B. subtilis lysine riboswitch. Briefly: equilibrium dialysis, B. subtilis lysine riboswitch. Type of experiment: binding. As to conditions: Bacillus subtilis riboswitch. The protocol:
as §1

Experiment [7] deals with mRNA that contains the FMN riboswitch. As to conditions: used at a 17-fold higher concentration than FMN; cited from earlier work.

`Cc1cc2nc3c(=O)[nH]c(=O)nc-3n(C[C@H](O)[C@H](O)[C@H](O)COP(=O)(O)O)c2cc1C` [FMN, flavin mononucleotide]: the Kd in experiment [1] was determined as 0.134 ± 0.0139 µM. The “binding to the riboswitch in the presence of cobalt hexamine” value in experiment [2] (cobalt hexamine in place of Mg2+) is given as “equally well”. In experiment [2] (iridium hexamine in place of Mg2+), the “reduction of binding affinity in the presence of iridium hexamine” value is “about 15 fold”.
With `CC(=N)NCCCC[C@H](N)C(=O)O` [N6-1-iminoethyl-L-lysine], the “binding to the riboswitch relative to lysine in primer extension” value in experiment [3] is “weaker interactions than lysine”.
For `NCCSC[C@H](N)C(=O)O` [AEC, S-(2-aminoethyl)-L-cysteine], in experiment [3], the “binding to the riboswitch relative to lysine in primer extension” value is on record as “weaker binding”.
As for `Cc1cc2nc3c(=O)[nH]c(=O)nc-3n(C[C@H](O)[C@H](O)[C@H](O)CO)c2cc1C` [riboflavin], the “decrease of binding affinity compared with binding of FMN” value in experiment [4] and in experiment [2] (F. nucleatum riboswitch) was “about 1,000 fold” each time. The Kd in experiment [2] worked out at 39.8 µM.
For the compound `N=C(N)NCCCC[C@H](N)C(=O)O` [L-homoarginine], in experiment [3], the “binding to the riboswitch relative to lysine in primer extension” value was “weaker interactions than lysine”.
On to `Cc1cc2nc3c(=O)[nH]c(=O)nc-3n(C)c2cc1C` [lumiflavin], for which the “effect of additional removal of the ribityl moiety on binding affinity” value in experiment [2] (compared with riboflavin) is recorded as “reduces binding affinity to only a very small extent”. In addition, the Kd in experiment [2] was determined as 59 µM.
In the case of `NCCOC[C@H](N)C(=O)O` [L-4-oxalysine], the “binding to the riboswitch relative to lysine in primer extension” value in experiment [3] is “weaker binding”.
For `NCCCC[C@H](N)C(=O)O` [lysine, L-lysine], the “lysine binding affinity when K+ was omitted or replaced by Na+” value in experiment [5] and in experiment [6] was “significantly decreased” each time. Further, in experiment [3] (in the presence of lysine), the “decrease of reverse transcriptase pause after replacement of K+ by Na+” value came to 33 fold.
As for `Cc1cc2nc3c(=O)[nH]c(=O)nc-3n(C[C@H](O)[C@H](O)[C@H](O)COP(=O)(O)OP(=O)(O)OC[C@H]3O[C@@H](n4cnc5c(N)ncnc54)[C@H](O)[C@@H]3O)c2cc1C` [FAD, flavin adenine dinucleotide], the “inhibition of transcription in vitro” value in experiment [7] was “inhibited”.
